Laboratory results from patent US11692004B2, “Substituted pyrazole compound, preparation method therefor, pharmaceutical composition and medical use thereof” (JIANGSU VANGUARD PHARMACEUTICAL CO., LTD., priority 2018, dated 2023).

Experiments:
PC12 cells = experiment: In-vitro neuroprotection-I (H2O2 injury, MTT); type: cell-based; details: Rattus norvegicus, PC-12, 48 h compound, then 200 μM H2O2 24 h, MTT survival rate
Description: All samples were made into 60 mM stock solution by DMSO, which were 200 times diluted to 300 μM by medium. And the final concentration was further diluted into different concentrations by media.
Control: Normal cell-plating and same cell medium as other group. 24 hours later, the medium was discarded. Incubate the cell in new media for 24 hours. No compound and hydrogen peroxide treatment. Other steps were the same as the sample test as mentioned below did.
Blank: no cell plating, cell medium, and other steps were the same as the sample test as mentioned below did.
(§1) After resuscitating, the PC12 cells were cultured in RPMI-1640 containing 10% horse serum and 5% Fetus Bovine Serum (FBS) under 5% CO2 at 37° C. for two weeks. The medium was changed every other day. The compounds were diluted into solutions of 12.5, 25, 50, 100, 200, 300 μM with culture medium (except that examples 33-45 with additional solutions of 400 μM and 500 μM). The PC 12 cells were seeded into a 96-well plate at a density of 8×10^3 cells/well and cultured in a 37° C., 5% CO2 incubator for 24 hours. Removed the medium, the cells were added with the compound solutions of different concentrations as test solutions for another 48 h incubation in a 37° C., 5% CO2 incubator. After the incubation, apart from the blank and control groups, the wells (including 0 μM drug group) were added to the medium-prepared 200 μM H2O2, and continued for another 24 h incubation in a 37° C., 5% CO2 incubator.
After the incubation, the wells were added with 20 μL 5 mg/mL MTT and incubated for 4 hours at 37° C. Carefully removed the medium and added 150 μL DMSO. The plates were placed on an enzyme-labeled instrument and vibrated for 5 min. The absorbance Atest solution were obtained at 490 nm with the Ablank of the well without cells and the Acontrol of the well with untreated cells. The survival rate of the cells in every well by the formula survival rate (%)=(Atest solution−Ablank)/(Acontrol−Ablank)*100%.

Cytotoxic test (MTT) = type: cell-based; details: rat, PC12 cells, 48 h incubation
Description: as §1, with “(except” for “(except that”, “PC12” for “PC 12”, “1.2×10^4” for “8×10^3”, “Remove” for “Removed”, “incubator.” for “incubator. After the incubation, apart from the blank and control groups, the wells (including 0 μM drug group) were added to the medium-prepared 200 μM H2O2, and continued for another 24 h incubation in a 37° C., 5% CO2 incubator.”
After the incubation, the wells were added with 20 μL 5 mg/mL MTT and incubated for 4 hours at 37° C. Carefully removed the medium and added 150 μL DMSO. The plates were placed on an enzyme-labeled instrument and vibrated for 5 min. The absorbance Atest solution were obtained at 490 nm with the Ablank of the well without cells and the Acontrol of the well with untreated cells. The survival rates of the cells in every well were calculated by the formula as Survival rate (%)=(Atest solution−Ablank)/(Acontrol−Ablank)*100%

[1] = system: MCAO model (middle cerebral artery ischemia-reperfusion); experiment: In vivo drug efficacy test of MCAO model; details: SD rats, MCAO 2 h then reperfusion, tail vein infusion 30 min; for Cerebral infarction area (%): TTC staining, infarct area to whole brain area; for Improvements of nerve function (%): score at 24 h versus model control

Cc1cc(OCOC(=O)c2cccnc2)n(-c2ccccc2)n1 [Compound 17, (3-methyl-1-phenylpyrazol-5-) oxymethyl nicotinate]
EC50 (PC12 cells): 94.9 µM
IC50 at 48 h (Cytotoxic test (MTT)): > 300 µM

CCOC(=O)Oc1ccccc1C(=O)OCOc1cc(C)nn1-c1ccccc1 [Compound 21, (3-methyl-1-phenylpyrazole-5-) oxymethyl-(2-ethoxycarbonyloxy) benzoate]
EC50 (PC12 cells): 82.1 µM

Cc1cc(OCNC(=O)CCCc2ccccc2)n(-c2ccccc2)n1 [Compound 50, N-((1-phenyl-3-methyl-1H-pyrazol-5-yl)oxy) methylphenylbutyramide]
EC50 (PC12 cells): 101 µM

Cc1cc(OC(C)OC(=O)C2CCCCC2)n(-c2ccccc2)n1 (centres unmarked) [Compound 12]
EC50 (PC12 cells): 89 µM

CCCCCCCCCCCCCCCCCC(=O)OCOc1cc(C)nn1-c1ccccc1 [Compound 32]
EC50 (PC12 cells): 80.7 µM
IC50 at 48 h (Cytotoxic test (MTT)): > 300 µM

Cc1cc(OCNC(=O)C(C)(C)C)n(-c2ccccc2)n1 [Compound 44, N-((1-phenyl-3-methyl-1H-pyrazol-5-yl)oxy) methyltrimethylacetamide]
EC50 (PC12 cells): 77.9 µM

Cc1cc(OC(C)OC(=O)c2ccccc2)n(-c2ccccc2)n1 (centres unmarked) [Compound 7, 1-(3-methyl-1-phenylpyrazole) oxyethyl benzoate]
EC50 (PC12 cells): 88.9 µM
IC50 at 48 h (Cytotoxic test (MTT)): > 300 µM

Cc1cc(OCNC(=O)c2ccccc2)n(-c2ccccc2)n1 [Compound 48, N-((1-phenyl-3-methyl-1H-pyrazol-5-yl)oxy) methylbenzamide]
EC50 (PC12 cells): 123 µM

Cc1cc(OC(C)OC(=O)CCCc2ccccc2)n(-c2ccccc2)n1 (centres unmarked) [Compound 9, 1-(3-methyl-1-phenylpyrazole)oxyethyl phenylbutyrate]
EC50 (PC12 cells): 120 µM
Cerebral infarction area (%) [1]: 19.8%
Improvements of nerve function (%) [1]: 16.0%
IC50 at 48 h (Cytotoxic test (MTT)): > 300 µM

Cc1cc(OCOC(=O)Cc2ccccc2)n(-c2ccccc2)n1 [Compound 31]
EC50 (PC12 cells): 91.2 µM

Cc1cc(OCOC(=O)c2ccccc2)n(-c2ccccc2)n1 [Compound 18, (3-methyl-1-phenylpyrazol-5-) oxymethyl benzoate]
EC50 (PC12 cells): 75 µM
IC50 at 48 h (Cytotoxic test (MTT)): > 300 µM

Cc1cc(OCOC(=O)c2cccc(N(C)C)c2O)n(-c2ccccc2)n1 [Compound 23, (3-methyl-1-phenylpyrazol-5-) oxymethyl-(2-hydroxy-3-N,N-dimethyl)benzoate]
EC50 (PC12 cells): 124 µM

Cc1cc(OC(C)OC(=O)Cc2ccccc2)n(-c2ccccc2)n1 (centres unmarked) [Compound 8]
EC50 (PC12 cells): 100 µM

CCCCCCCC(=O)OCOc1cc(C)nn1-c1ccccc1 [Compound 15, (3-methyl-1-phenylpyrazol-5-) oxymethyl octanoate]
EC50 (PC12 cells): 67.2 µM
Cerebral infarction area (%) [1]: 20.0%
Improvements of nerve function (%) [1]: 15.9%

Cc1cc(OCOC(=O)c2ccccc2O)n(-c2ccccc2)n1 [Compound 19, (3-methyl-1-phenylpyrazol-5-) oxymethyl-(2-hydroxy) benzoate]
IC50 at 48 h (Cytotoxic test (MTT)): > 300 µM

Cc1cc(OCOC(=O)C(C)C)n(-c2ccccc2)n1 [Compound 14, (3-methyl-1-phenylpyrazol-5-) oxymethyl isobutyrate]
EC50 (PC12 cells): 45.2 µM

Cc1cc(OCOC(=O)C2CCCCC2)n(-c2ccccc2)n1 [Compound 30]
EC50 (PC12 cells): 77.2 µM

Cc1cc(OCNC(=O)C2CCCC2)n(-c2ccccc2)n1 [Compound 46, N-((1-phenyl-3-methyl-1H-pyrazol-5-yl)oxy) methylcyclopentylformamide]
EC50 (PC12 cells): 90.1 µM

Cc1cc(OCOC(=O)C(C)(C)C)n(-c2ccccc2)n1 [Compound 13, (3-methyl-1-phenylpyrazol-5-) oxymethyl pivalate]
EC50 (PC12 cells): 110 µM
Cerebral infarction area (%) [1]: 17.5%
Improvements of nerve function (%) [1]: 17.2%
IC50 at 48 h (Cytotoxic test (MTT)): 252 µM

CCCCCCCCCCCCCCCCCC(=O)OC(C)Oc1cc(C)nn1-c1ccccc1 (centres unmarked) [Compound 6]
EC50 (PC12 cells): 56.8 µM

Cc1cc(OC(C)OC(=O)C2CC2)n(-c2ccccc2)n1 (centres unmarked) [Compound 10]
EC50 (PC12 cells): 55.7 µM

CCOC(=O)Oc1ccc(N(C)C)cc1C(=O)OCOc1cc(C)nn1-c1ccccc1 [Compound 25, (3-methyl-1-phenylpyrazole-5-) oxymethyl-(2-ethoxycarbonyloxy-5-N,N-dimethyl)benzoic Acid]
EC50 (PC12 cells): 59.3 µM
IC50 at 48 h (Cytotoxic test (MTT)): > 300 µM

CC(=O)OCOc1cc(C)nn1-c1ccccc1 [Compound 26]
EC50 (PC12 cells): 54.8 µM
IC50 at 48 h (Cytotoxic test (MTT)): > 300 µM

Cc1cc(OC(C)OC(=O)C(C)(C)C)n(-c2ccccc2)n1 (centres unmarked) [Compound 4, 1-(3-methyl-1-phenylpyrazole) oxyethyl pivalate]
EC50 (PC12 cells): 69.5 µM
IC50 at 48 h (Cytotoxic test (MTT)): > 300 µM

CC(=O)OC(C)Oc1cc(C)nn1-c1ccccc1 (centres unmarked) [Compound 1]
EC50 (PC12 cells): 66.4 µM

Cc1cc(OCNC(=O)C(C)C)n(-c2ccccc2)n1 [Compound 43, N-((1-phenyl-3-methyl-1H-pyrazol-5-yl)oxy) methylisobutyramide]
EC50 (PC12 cells): 58.1 µM
Cerebral infarction area (%) [1]: 19.8%
Improvements of nerve function (%) [1]: 16.1%

Cc1cc(OCNC(=O)Cc2ccccc2)n(-c2ccccc2)n1 [Compound 49, N-((1-phenyl-3-methyl-1H-pyrazol-5-yl)oxy) methylphenylacetamide]
IC50 at 48 h (Cytotoxic test (MTT)): > 300 µM

Cc1cc(OCOC(=O)C2CC2)n(-c2ccccc2)n1 [Compound 28]
EC50 (PC12 cells): 85.9 µM

Cc1cc(OCNC(=O)C2CC2)n(-c2ccccc2)n1 [Compound 45, N-((1-phenyl-3-methyl-1H-pyrazol-5-yl)oxy) methylcyclopropylformamide]
EC50 (PC12 cells): 75.3 µM

Cc1cc(OCNC(=O)C2CCCCC2)n(-c2ccccc2)n1 [Compound 47, N-((1-phenyl-3-methyl-1H-pyrazol-5-yl)oxy) methylcyclohexanecarboxamide]
EC50 (PC12 cells): 53.6 µM
IC50 at 48 h (Cytotoxic test (MTT)): 269 µM

Cc1cc(OC(C)OC(=O)C(C)C)n(-c2ccccc2)n1 (centres unmarked) [Compound 3, 1-(3-methyl-1-phenylpyrazole) oxyethyl isobutyrate]
EC50 (PC12 cells): 98 µM
IC50 at 48 h (Cytotoxic test (MTT)): > 300 µM

Cc1cc(OCOC(=O)CCCc2ccccc2)n(-c2ccccc2)n1 [Compound 16, (3-methyl-1-phenylpyrazol-5-) oxymethyl phenylbutyrate]
EC50 (PC12 cells): 48 µM
Cerebral infarction area (%) [1]: 19.9%
Improvements of nerve function (%) [1]: 16.2%
IC50 at 48 h (Cytotoxic test (MTT)): 234 µM

CCCCCCCCCCCCCCCCCC(=O)NCOc1cc(C)nn1-c1ccccc1 [Compound 52, N-((1-phenyl-3-methyl-1H-pyrazol-5-yl)oxy)methyl stearamide]
EC50 (PC12 cells): 78.6 µM

CC(=O)NCOc1cc(C)nn1-c1ccccc1 [Compound 41, N-((1-phenyl-3-methyl-1H-pyrazol-5-yl)oxy) methylacetamide]
EC50 (PC12 cells): 55.1 µM

CCC(=O)NCOc1cc(C)nn1-c1ccccc1 [Compound 42, N-((1-phenyl-3-methyl-1H-pyrazol-5-yl)oxy) methyl propionamide]
EC50 (PC12 cells): 75.4 µM
Cerebral infarction area (%) [1]: 19.7%
Improvements of nerve function (%) [1]: 15.9%
IC50 at 48 h (Cytotoxic test (MTT)): > 300 µM

Cc1cc(OCOC(=O)c2ccccc2OC(=O)C(C)C)n(-c2ccccc2)n1 [Compound 22, (3-methyl-1-phenylpyrazol-5-)oxymethyl-(2-isobutyryloxy)benzoic acid]
EC50 (PC12 cells): 103 µM

CCCCCCCC(=O)OC(C)Oc1cc(C)nn1-c1ccccc1 (centres unmarked) [Compound 5, 1-(3-methyl-1-phenylpyrazole)oxyethyl octanoate]
IC50 at 48 h (Cytotoxic test (MTT)): > 300 µM
